Assay [1] deals with human sensory panel (sweet, bitter or astringent taste). In words: Sensory testing in model bases (human sensory panel, 20 trained panelists). The settings on record: 10 ppm; scale of −5 (strong masking effect) to 5 (strong enhancing effect); 0 = reference water solution containing 4% sucrose or 10 ppm mixture of Limonin, Naringin and Nomilin. The format is in vivo. From the text:
Certain HMF compounds were tasted by a human sensory panel to assess their ability to reduce bitterness, reduce astringency, and enhance sweetness. The panel consisted of 20 trained panelists evaluating the samples at 10 ppm for taste properties (sweet, bitter or astringent) on a scale of −5 to 5 (−5 denoted strong masking effect and 5 denoted strong enhancing effect, 0 being the intensity of a reference water solution containing 4% sucrose or 10 ppm mixture of Limonin, Naringin and Nomilin).

Assay [2] has as its system human sensory panel (bitter and astringent taste). In words: Sensory testing in applications (human sensory panel, 8 experts). It is filed as in vivo. The settings on record: scale of −5 (strong masking) to 5 (strong enhancing), 0 = reference application; for Smart Protein Beverage Astringent / Smart Protein Beverage Bitter / Smart Protein Beverage Off-flavor: 10 ppm in smart protein beverage. From the text:
Certain HMF compounds were tasted by a human sensory panel to assess their ability to reduce bitterness and astringency. The panel consisted of 8 experts evaluating the samples at 10 ppm for taste properties (bitter and astringent) on a scale of −5 to 5 (−5 denoted strong masking effect and 5 denoted strong enhancing effect, 0 being the intensity of a reference application in coffee, tea or pomegranate juice, smart protein beverage).

Each structure is given as a SMILES string.

Consider `COc1ccc(-c2cc(=O)c3c(O)c(OC)c(O)c(OC)c3o2)cc1` [Compound 101, 5,7-dihydroxy-6,8,4′-trimethoxyflavone], for which, in assay [1], the Astringency is −1.21, the Bitterness is on record as −1.59 and the Sweetness is reported as −0.23. For the same molecule, in assay [2] (10 ppm in coffee), the “Coffee Astringency” value was found to be 0.17 and the “Coffee Bitterness” value is reported as −0.58. For the same molecule, in assay [2] (10 ppm in pomegranate juice), the “Pomegranate Juice Astringency” value was determined as 0.67 and the “Pomegranate Juice Bitterness” value was 0.31. Moreover, in assay [2], the “Smart Protein Beverage Astringent” value was 0.4, the “Smart Protein Beverage Bitter” value is listed as −0.6 and the “Smart Protein Beverage Off-flavor” value is −0.1. In assay [2] (10 ppm in tea), the “Tea Astringency” value worked out at 1.00 and the “Tea Bitterness” value is given as 0.83.
`O=c1cc(-c2ccc(O)cc2)oc2cc(O)c(O)c(O)c12` [Compound 103, 5,6,7,4′-tetrahydroxyflavone]: in assay [1], the Astringency was −0.35, the Bitterness is −1.28 and the Sweetness is given as 0.50. Moreover, in assay [2], the “Smart Protein Beverage Astringent” value is recorded as 0.25, the “Smart Protein Beverage Bitter” value is reported as 0.00 and the “Smart Protein Beverage Off-flavor” value is recorded as −0.50.
Take `COc1c(O)cc2oc(-c3ccccc3)cc(=O)c2c1O` [Compound 104, 5,7-dihydroxy-6-methoxyflavone]: in assay [1], the Astringency is −0.48, the Bitterness is −1.08 and the Sweetness is 0.17.
With `COc1ccc(-c2cc(=O)c3c(O)c(OC)c(O)cc3o2)cc1OC` [Compound 105, 5,7-dihydroxy-6,3′,4′-trimethoxyflavone], in assay [1], the Astringency is reported as −0.53, the Bitterness is −2.02 and the Sweetness was determined as 0.58. Moreover, in assay [2], the “Smart Protein Beverage Astringent” value is reported as −1.0, the “Smart Protein Beverage Bitter” value is −0.80 and the “Smart Protein Beverage Off-flavor” value is on record as −0.80.
Consider `COc1cc(-c2oc3cc(O)cc(O)c3c(=O)c2O)ccc1O` [Compound 106, 3,4′,5,7-tetrahydroxy-3′-methoxyflavone], for which, in assay [1], the Astringency is on record as −0.34, the Bitterness is −1.47 and the Sweetness is 0.58.
In the same order, the values of `COc1cc(O)cc2c1C(=O)CC(c1ccccc1)O2` (stereo not drawn) [Compound 107, 5-methoxy-7-hydroxyflavanone] are −1.56, −2.56 and 0.08.
`COc1ccc(-c2oc3cc(OC)c(OC)c(O)c3c(=O)c2OC)cc1O` [Compound 108, 3,6,7,4′-tetramethoxy-5,3′-dihydroxyflavone]: in assay [1], the Astringency was −1.01, the Bitterness is recorded as −1.94 and the Sweetness is listed as −0.08. For the same molecule, in assay [2], the “Smart Protein Beverage Astringent” value is reported as −0.33, the “Smart Protein Beverage Bitter” value is on record as −0.42 and the “Smart Protein Beverage Off-flavor” value is reported as −0.33.
`COc1c(O)cc(O)c2c(=O)cc(-c3ccccc3)oc12` [Compound 109, 5,7-dihydroxy-8-methoxyflavone]: in assay [1], the Astringency is recorded as −0.64, the Bitterness is recorded as −1.54 and the Sweetness is on record as −0.58.
